Source: US10064975B2, “Method for coating skin abrasion, laceration, burn or oedema after surgery” (Lilac Laboratory Co., Ltd., priority 2014, dated 2018)

Assay: pH
Format: physicochemical
Details: less affected by the concentration
From the text: According to the present invention, an active ingredient, aluminium chloride hydrate, is preferably used at the practical range of 0.005% to 20% by weight in view of the strong acidity thereof and tissue irritating nature. The pH of aluminium chloride is less affected by the concentration and is as low as around pH 1.9. Aluminium chloride has strong tissue irritating nature, and thus is more preferably adjusted to pH of 2.8 to 6.0 in practical use.
In the present Example, in order to reduce irritating nature at affected areas due to the acidity of aluminium chloride, 3.0% of the 10% sodium hydroxide solution was added to neutralise, the produced precipitate was removed by filtration and pH was adjusted to 3.9. […] Therefore, the 70% ethanol preparation was added as a fungicide.
In the present Example, in order to reduce irritating nature at affected areas due to the acidity of aluminium chloride, the solution was neutralised with sodium hydroxide and adjusted to pH 3.5, and the precipitate was removed by filtration.

Question: For [Cl][Al]([Cl])[Cl] [aluminium chloride], which “pH of aluminium chloride” value is on record?
Answer: ~1.9
